Laboratory results as given in patent US20190185479A1, “BICYCLIC NITROGENATED HETEROCYCLIC COMPOUND” (MITSUBISHI TANABE PHARMA CORPORATION, priority 2016, published 2019).
Structures can show the parent of a compound that is named as a salt.

Columns and labels:
Type in all cases: biochemical
hPDE8B = target: T1, hPDE8B (Homo sapiens, UniProt O95263); assay: PDE8 inhibition assay (IC50), Experimental Example 3; conditions: for IC50: hPDE8B, read-out: PDE inhibition assay IC50, PDE8
T1 construct: purchased SB Drug Discovery
T1 sequence (O95263 whole entry): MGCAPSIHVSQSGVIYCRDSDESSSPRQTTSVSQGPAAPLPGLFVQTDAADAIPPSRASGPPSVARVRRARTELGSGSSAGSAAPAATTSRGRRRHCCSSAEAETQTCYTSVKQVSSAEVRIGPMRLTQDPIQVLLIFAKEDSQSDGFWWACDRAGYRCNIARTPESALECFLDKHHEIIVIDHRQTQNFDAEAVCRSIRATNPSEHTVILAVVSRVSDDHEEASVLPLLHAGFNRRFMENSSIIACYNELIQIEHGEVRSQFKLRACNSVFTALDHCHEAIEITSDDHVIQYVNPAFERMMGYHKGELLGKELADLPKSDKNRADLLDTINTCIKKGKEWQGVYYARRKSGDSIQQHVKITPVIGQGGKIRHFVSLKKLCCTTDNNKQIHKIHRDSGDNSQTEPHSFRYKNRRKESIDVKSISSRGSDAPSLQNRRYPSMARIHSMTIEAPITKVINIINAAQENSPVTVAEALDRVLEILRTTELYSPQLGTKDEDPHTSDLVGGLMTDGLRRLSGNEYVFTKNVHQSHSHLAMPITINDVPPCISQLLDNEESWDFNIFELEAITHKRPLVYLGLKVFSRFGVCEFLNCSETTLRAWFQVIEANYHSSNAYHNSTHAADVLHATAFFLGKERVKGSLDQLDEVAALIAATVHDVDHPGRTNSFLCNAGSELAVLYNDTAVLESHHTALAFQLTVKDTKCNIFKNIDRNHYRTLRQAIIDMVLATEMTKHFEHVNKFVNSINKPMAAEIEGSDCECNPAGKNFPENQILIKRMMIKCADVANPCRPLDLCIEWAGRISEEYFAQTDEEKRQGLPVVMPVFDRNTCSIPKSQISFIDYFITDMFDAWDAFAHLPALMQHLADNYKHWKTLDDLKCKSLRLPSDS
Procedure: (§1) PDE7 inhibitory assay was carried out by reacting the mixture of a compound, hPDE7B, and cAMP, and measuring the residual cAMP by a detection method using LANCE (registered trademark) Ultra cAMP Detection Kit (ParkinElmer). The compound was dissolved in DMSO, and diluted so that the concentration would become 50 times of the final concentration. The hPDE7B and cAMP were diluted with an assay buffer (50 mmol/L Tris-HCl, 1 mmol/L MgCl2, 0.1% BSA, 0.5 mmol/L DTT, pH7.5) so that the hPDE7B would have an appropriate enzyme activity and the concentration of cAMP would become 6 nmol/L. To a 96 well plate were added the compound (2 μL) (DMSO final concentration: 2%), hPDE7B (48 μL), and cAMP (50 μL) (concentration at the reaction: 3 nmol/L), and the resulting mixture was reacted at room temperature for 60 minutes. The reaction solution (20 μL) was subjected to a TR-FRET method according to the protocol specified by the kit to measure the concentration of the residual cAMP. In the assay, to a tracer solution specified by the kit was added 0.5 mmol/L of 3-isobutyl-1-methylxanthine (IBMX, nonselective PDE inhibitor) in order to stop the PDE enzyme reaction after the completion of reaction until the measurement.
(§2) The prediction of PDE7 selectivity was evaluated by comparing each IC50 value of a compound against PDE4, 8, and 10 with the IC50 value of said compound against PDE7B.
(§3) hPDE4D, hPDE8B, and hPDE10A were prepared by the same method as [Method for preparing samples 2].
(§4) PDE4, 8, and 10 inhibitory assays were carried out by the same method as [Assay procedure 1].
(§5) The reaction without a compound wad defined as “0% inhibition”, the reaction without each PDE was defined as “100% inhibition”, and the calculation of IC50 value was carried out by the same method as <Method for data calculation 1>.

hPDE10A = hPDE10A (Homo sapiens, UniProt Q9Y233); assay: PDE10 inhibition assay (IC50), Experimental Example 3; conditions: for IC50: hPDE10A, read-out: PDE inhibition assay IC50, PDE10
hPDE10A, sequence (Q9Y233 290-1055 limits assumed): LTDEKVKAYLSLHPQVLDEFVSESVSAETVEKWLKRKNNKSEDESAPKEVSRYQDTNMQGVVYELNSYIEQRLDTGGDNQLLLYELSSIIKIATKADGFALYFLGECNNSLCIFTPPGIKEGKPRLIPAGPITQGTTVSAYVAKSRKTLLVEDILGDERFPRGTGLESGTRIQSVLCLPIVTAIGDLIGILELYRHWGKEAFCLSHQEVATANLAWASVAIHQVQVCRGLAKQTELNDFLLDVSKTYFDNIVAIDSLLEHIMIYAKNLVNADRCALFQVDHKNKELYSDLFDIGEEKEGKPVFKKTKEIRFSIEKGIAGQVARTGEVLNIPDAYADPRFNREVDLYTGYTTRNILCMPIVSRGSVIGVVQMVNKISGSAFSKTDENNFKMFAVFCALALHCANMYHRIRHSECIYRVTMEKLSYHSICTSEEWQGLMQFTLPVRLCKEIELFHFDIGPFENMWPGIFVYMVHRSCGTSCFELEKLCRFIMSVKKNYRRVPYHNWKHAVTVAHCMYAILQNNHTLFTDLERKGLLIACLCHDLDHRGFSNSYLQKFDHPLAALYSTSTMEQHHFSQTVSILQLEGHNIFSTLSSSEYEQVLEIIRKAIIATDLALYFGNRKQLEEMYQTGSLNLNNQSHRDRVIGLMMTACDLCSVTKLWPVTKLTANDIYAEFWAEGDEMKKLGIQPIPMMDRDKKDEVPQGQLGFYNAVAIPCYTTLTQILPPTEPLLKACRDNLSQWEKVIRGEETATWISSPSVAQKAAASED
Procedure: as §1, §2, §3, §4, §5

Human PDE7B (hPDE7B) = target: T2, Human PDE7B (hPDE7B) (Homo sapiens, UniProt Q9NP56); assay: Measurement of PDE7 inhibitory activity (Experimental Example 1; residual cAMP, LANCE Ultra cAMP TR-FRET); conditions: for IC50: cAMP 3 nmol/L, room temperature 60 minutes; for inhibition at 1 µM: compound at 1 μmol/L
T2 construct: made in house; host or cells: COS-7 cells
T2 sequence (Q9NP56 whole entry): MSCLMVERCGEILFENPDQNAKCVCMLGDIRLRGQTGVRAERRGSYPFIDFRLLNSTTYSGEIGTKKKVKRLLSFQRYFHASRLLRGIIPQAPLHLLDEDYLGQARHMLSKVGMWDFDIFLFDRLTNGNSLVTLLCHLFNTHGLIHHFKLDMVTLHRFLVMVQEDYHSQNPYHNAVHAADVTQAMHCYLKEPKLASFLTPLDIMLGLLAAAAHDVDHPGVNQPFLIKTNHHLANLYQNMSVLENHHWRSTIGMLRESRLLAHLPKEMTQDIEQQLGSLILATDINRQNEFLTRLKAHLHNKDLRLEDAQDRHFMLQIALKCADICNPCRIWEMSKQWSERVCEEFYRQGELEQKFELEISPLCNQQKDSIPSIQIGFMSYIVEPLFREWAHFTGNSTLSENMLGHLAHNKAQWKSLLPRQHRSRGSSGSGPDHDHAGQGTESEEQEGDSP
Outline: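 hPDE7B from transfected COS-7 cells reacted with 3 nmol/L cAMP (final) and compound (2% DMSO) in 50 mmol/L Tris-HCl pH 7.5, 1 mmol/L MgCl2, 0.1% BSA, 0.5 mmol/L DTT, 60 min at room temperature. Reaction stopped with IBMX; residual cAMP measured by TR-FRET. Inhibition scaled between no-compound and no-enzyme controls.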

hPDE4D = target: T3, hPDE4D (Homo sapiens, UniProt Q08499); assay: PDE4 inhibition assay (IC50), Experimental Example 3; conditions: for IC50: hPDE4D, read-out: PDE inhibition assay IC50, PDE4
T3 construct: purchased SB Drug Discovery
T3 sequence (Q08499 whole entry): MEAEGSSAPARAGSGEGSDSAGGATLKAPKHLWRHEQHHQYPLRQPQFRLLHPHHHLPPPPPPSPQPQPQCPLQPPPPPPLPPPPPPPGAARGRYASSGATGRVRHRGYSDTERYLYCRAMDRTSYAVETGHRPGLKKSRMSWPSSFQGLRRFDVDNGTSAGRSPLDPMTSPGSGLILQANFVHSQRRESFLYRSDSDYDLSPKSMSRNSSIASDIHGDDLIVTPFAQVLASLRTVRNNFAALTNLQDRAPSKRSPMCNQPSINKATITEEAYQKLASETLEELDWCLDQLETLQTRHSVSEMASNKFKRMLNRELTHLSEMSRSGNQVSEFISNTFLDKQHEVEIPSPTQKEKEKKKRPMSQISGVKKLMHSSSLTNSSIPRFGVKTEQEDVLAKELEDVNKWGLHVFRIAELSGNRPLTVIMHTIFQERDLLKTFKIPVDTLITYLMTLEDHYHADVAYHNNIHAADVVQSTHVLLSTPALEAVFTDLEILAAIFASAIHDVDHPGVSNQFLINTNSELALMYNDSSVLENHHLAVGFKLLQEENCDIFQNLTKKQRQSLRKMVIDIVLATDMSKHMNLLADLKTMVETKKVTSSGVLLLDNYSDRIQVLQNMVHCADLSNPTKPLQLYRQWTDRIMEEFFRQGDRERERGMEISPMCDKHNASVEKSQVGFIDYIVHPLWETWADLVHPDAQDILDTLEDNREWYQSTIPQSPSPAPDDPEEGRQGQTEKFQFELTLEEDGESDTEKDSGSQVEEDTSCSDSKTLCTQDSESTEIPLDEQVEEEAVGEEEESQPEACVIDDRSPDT
Procedure: as §1, §2, §3, §4, §5

| IC50 (Human PDE7B (hPDE7B)) [nM] | SMILES | other results |
| --- | --- | --- |
| 60 | CC1CC(c2nnc3c(N)nccn23)CC(F)(F)C1 (single isomer, unassigned) [Example 214] | IC50 (hPDE8B): 17100 nM; IC50 (hPDE10A): 15700 nM; IC50 (hPDE4D): 6400 nM |
| < 10 | CC1CCC(F)(F)CC1c1nnc2c(N)nccn12 (single isomer, unassigned) [Example 175, 3-(cis-5,5-difluoro-2-methylcyclohexyl) [1,2,4]triazolo[4,3-a]pyrazin-8-amine] | IC50 (hPDE8B): 19500 nM; IC50 (hPDE10A): 1900 nM; IC50 (hPDE4D): 14900 nM |
| 160 | Nc1ncnc2c1nnn2[C@H]1CCCC(F)(F)C1 [Example 89] | IC50 (hPDE8B): 8600 nM; inhibition at 10 µM (hPDE10A; at 10 μmol/L, read-out: inhibition rate (%) at prescribed concentration, PDE10): 17% |
| 190 | Nc1ncnc2c1nnn2[C@H]1CCCN(c2ccccc2)C1 [Example 137, 3-[(3S)-1-phenylpiperidin-3-yl]-3H-[1,2,3]triazolo[4,5-d]pyrimidin-7-amine] | inhibition at 0.1 µM (hPDE8B; at 0.1 μmol/L, read-out: inhibition rate (%) at prescribed concentration, PDE8): 58% |
| 280 | Nc1ncnc2c1nnn2C1CCCC(COCc2ccccc2)C1 (stereo not shown) [Example 126] | IC50 (hPDE8B): 2650 nM |
| 3 | CC1CCC(F)(F)CC1c1nnc2c(N)ncnn12 (single isomer, unassigned) [Example 246, 3-(cis-5,5-difluoro-2-methylcyclohexyl) [1,2,4]triazolo[3,4-f][1,2,4]triazin-8-amine] | IC50 (hPDE8B): 4400 nM; IC50 (hPDE4D): 2300 nM |
| 210 | Nc1ncnc2c1nnn2C1CCCC(COc2ccccc2)C1 (stereo not shown) [Example 125] | IC50 (hPDE8B): 1110 nM |
| 560 | Nc1ncnc2c1c(C(F)(F)F)nn2C1CCCCC1 [Example 185] | IC50 (hPDE10A): 360 nM; IC50 (hPDE4D): 1840 nM |
| 560 | CC1(n2nnc3c(N)ncnc32)CCCCC1 [Example 7] | inhibition at 10 µM (hPDE8B; at 10 μmol/L, read-out: inhibition rate (%) at prescribed concentration, PDE8): 50% |
| 120 | CC[C@H]1CC[C@H](n2nnc3c(N)ncnc32)CC1 [Example 100] | IC50 (hPDE8B): 1800 nM |
| 410 | Nc1ncnc2c1ncn2C1CCCCC1 [Example 182] | IC50 (hPDE10A): 470 nM; IC50 (hPDE4D): 3420 nM |
| 580 | Cn1nc(C2CCCCC2)c2ncnc(N)c21 [Example 187, 3-cyclohexyl-1-methyl-1H-pyrazolo[4,3-d]pyrimidin-7-amine] | IC50 (hPDE10A): 2720 nM; inhibition at 10 µM (hPDE4D; at 10 μmol/L, read-out: inhibition rate (%) at prescribed concentration, PDE4): 38% |
| 610 | Nc1ncnc2c(C3CCCCC3)onc12 [Example 253, 3-(cyclohexyl)-isoxazolo[4,3-d]pyrimidin-8-amine] | IC50 (hPDE8B): 3810 nM; IC50 (hPDE4D): 7380 nM |
| < 10 | COc1nc(N)c2nnn(C3CCCCC3)c2n1 [Example 92, 3-cyclohexyl-5-methoxy-3H-[1,2,3]triazolo[4,5-d]pyrimidin-7-amine] | IC50 (hPDE10A): 2970 nM; IC50 (hPDE4D): 640 nM |
| 260 | Nc1ncnc2c1nnn2C1CCCC(CO)C1 (stereo not shown) [Example 124] | – |
| 304 | C[C@@H]1CCC[C@@H](C)N1c1nnc2c(N)nccn12 [Example 63] | – |
| > 1000 | CC1(C)CCCC(c2nnc3c(N)nccn23)C1 (single isomer, unassigned) [Example 206, 3-(3,3-dimethylcyclohexyl) [1,2,4]triazolo[4,3-a]pyrazin-8-amine] | inhibition at 1 µM (Human PDE7B (hPDE7B)): 44% |
| 680 | Nc1ncnc2c1nnn2[C@@H]1CCCN(c2ccccc2)C1 [Example 136, 3-[(3R)-1-phenylpiperidin-3-yl]-3H-[1,2,3]triazolo[4,5-d]pyrimidin-7-amine] | – |
| 30 | CSc1nc(N)c2nnn(C3CCCCC3)c2n1 [Example 5, 3-cyclohexyl-5-(methylsulfanyl)-3H-[1,2,3]triazolo[4,5-d]pyrimidin-7-amine] | IC50 (hPDE10A): 2760 nM; IC50 (hPDE4D): 190 nM |
| 110 | CC1(C)CCN(c2nnc3c(N)nccn23)CC1 [Example 51] | – |

| IC50 (Human PDE7B (hPDE7B)) [nM] | SMILES | other results |
| --- | --- | --- |
| 160 | CC(C)(C)OC(=O)N1CCC[C@H](n2nnc3c(N)ncnc32)C1 [Example 13, Tert-butyl (3S)-3-(7-amino-3H-[1,2,3]triazolo[4,5-d]pyrimidin-3-yl)piperidine-1-carboxylate] | IC50 (hPDE8B): 220 nM |
| 107 | C[C@H]1CCC[C@H](C)N1c1nnc2c(N)nccn12 [Example 64] | – |
| 530 | CC1CC(c2nnc3c(N)nccn23)CC(F)(F)C1 (single isomer, unassigned) [Example 215] | – |
| 220 | CC1CCCCC1n1nnc2c(N)ncnc21 (single isomer, unassigned) [Example 190, 3-(cis-2-methylcyclohexyl)-3H-[1,2,3]triazolo[4,5-d]pyrimidin-7-amine] | – |
| 260 | Nc1nccn2c(N3CCCC(c4ccccc4)C3)nnc12 (stereo not shown) [Example 49] | – |
| 440 | Nc1nccn2c(C3CCCCO3)nnc12 (stereo not shown) [Example 168] | – |
| > 1000 | Nc1ncnc2c1nnn2C1CCCC(C(F)(F)F)C1 (single isomer, unassigned) [Example 203, 3-[cis-3-(trifluoromethyl)cyclohexyl]-3H-[1,2,3]triazolo[4,5-d]pyrimidin-7-amine] | inhibition at 1 µM (Human PDE7B (hPDE7B)): 27% |
| 230 | CC1CCCC(c2nnc3c(N)ncnn23)C1 (single isomer, unassigned) [Example 241, 3-(cis-3-methylcyclohexyl) [1,2,4]triazolo[3,4-f][1,2,4]triazin-8-amine] | – |
| 40 | Nc1nccn2c(C3CCCC(C(F)(F)F)C3)nnc12 (racemic) [Example 146, 3-[cis-3-(trifluoromethyl)cyclohexyl][1,2,4]triazolo[4,3-a]pyrazin-8-amine] | – |
| 300 | C=C(C)[C@@H]1CC[C@@H](C)[C@@H](n2nnc3c(N)ncnc32)C1 [Example 106, 3-[(1S,2R,5R)-2-methyl-5-(prop-1-en-2-yl)cyclohexyl]-3H-[1,2,3]triazolo[4,5-d]pyrimidin-7-amine] | IC50 (hPDE8B): 4380 nM |
| 30 | CC1(C)CC(c2nnc3c(N)nccn23)CC(F)(F)C1 (racemic) [Example 156, 3-(3,3-difluoro-5,5-dimethylcyclohexyl) [1,2,4]triazolo[4,3-a]pyrazin-8-amine] | – |
| 950 | Nc1ncnc2c1nnn2C1CCCCC1C(F)(F)F (racemic) [Example 96] | – |
| 60 | CC1CCCC(n2nnc3c(N)ncnc32)C1 (racemic) [Example 94, 3-(trans-3-methylcyclohexyl)-3H-[1,2,3]triazolo[4,5-d]pyrimidin-7-amine] | – |
| 40 | CC1CCCCC1n1nnc2c(N)ncnc21 (racemic) [Example 95, 3-(cis-2-methylcyclohexyl)-3H-[1,2,3]triazolo[4,5-d]pyrimidin-7-amine] | – |
| 320 | Nc1nccn2c(N3CCCC(F)C3)nnc12 (stereo not shown) [Example 27] | – |
| 80 | Nc1ncnc2c1nnn2C1CCCC(CF)C1 (stereo not shown) [Example 118] | inhibition at 1 µM (hPDE8B; at 1 μmol/L, read-out: inhibition rate (%) at prescribed concentration, PDE8): 55%; IC50 (hPDE4D): 4250 nM |
| 40 | Nc1ncnc2c1nnn2C1CCCCC1 [Example 85, 3-cyclohexyl-3H-[1,2,3]triazolo[4,5-d]pyrimidin-7-amine hydrochloride] | – |
| 70 | CC1CCCC(n2nnc3c(N)ncnc32)C1 (single isomer, unassigned) [Example 198, 3-(trans-3-methylcyclohexyl)-3H-[1,2,3]triazolo[4,5-d]pyrimidin-7-amine] | – |
| 730 | Cc1cnc(C2CCCC(n3nnc4c(N)ncnc43)C2)s1 (stereo not shown) [Example 127] | – |
| 870 | COC1CCCC(n2nnc3c(N)ncnc32)C1 (stereo not shown) [Example 121] | – |
